# Test results taken from patent publication US20210403485A1, “PYRAZOLOPYRIMIDINE DERIVATIVE AS SELECTIVE TRK INHIBITOR” (SHANDONG LUYE PHARMACEUTICAL CO., LTD., priority 2018, published 2021).
# Like-named read-outs stand apart in the source and are kept apart here.
# How the values were obtained:
# [1] = molecular target: T1, Ba/F3 SLC34A2-ROS1-WT (Homo sapiens, UniProt P08922); assay: Inhibitory activity against cell proliferation (CellTiter-Glo, 72 hours); assay type: cell-based; conditions: read-out: Half maximal inhibitory concentration IC50 of cells, Ba/F3 SLC34A2-ROS1-WT
# T1 construct: fused on or other part: N-terminal part of SLC34A2 as fusion partner (part of the key); O95436 (Sodium-dependent phosphate transport protein 2B)
# T1 sequence (P08922 whole entry, stated change not applied, the tested form may be a part): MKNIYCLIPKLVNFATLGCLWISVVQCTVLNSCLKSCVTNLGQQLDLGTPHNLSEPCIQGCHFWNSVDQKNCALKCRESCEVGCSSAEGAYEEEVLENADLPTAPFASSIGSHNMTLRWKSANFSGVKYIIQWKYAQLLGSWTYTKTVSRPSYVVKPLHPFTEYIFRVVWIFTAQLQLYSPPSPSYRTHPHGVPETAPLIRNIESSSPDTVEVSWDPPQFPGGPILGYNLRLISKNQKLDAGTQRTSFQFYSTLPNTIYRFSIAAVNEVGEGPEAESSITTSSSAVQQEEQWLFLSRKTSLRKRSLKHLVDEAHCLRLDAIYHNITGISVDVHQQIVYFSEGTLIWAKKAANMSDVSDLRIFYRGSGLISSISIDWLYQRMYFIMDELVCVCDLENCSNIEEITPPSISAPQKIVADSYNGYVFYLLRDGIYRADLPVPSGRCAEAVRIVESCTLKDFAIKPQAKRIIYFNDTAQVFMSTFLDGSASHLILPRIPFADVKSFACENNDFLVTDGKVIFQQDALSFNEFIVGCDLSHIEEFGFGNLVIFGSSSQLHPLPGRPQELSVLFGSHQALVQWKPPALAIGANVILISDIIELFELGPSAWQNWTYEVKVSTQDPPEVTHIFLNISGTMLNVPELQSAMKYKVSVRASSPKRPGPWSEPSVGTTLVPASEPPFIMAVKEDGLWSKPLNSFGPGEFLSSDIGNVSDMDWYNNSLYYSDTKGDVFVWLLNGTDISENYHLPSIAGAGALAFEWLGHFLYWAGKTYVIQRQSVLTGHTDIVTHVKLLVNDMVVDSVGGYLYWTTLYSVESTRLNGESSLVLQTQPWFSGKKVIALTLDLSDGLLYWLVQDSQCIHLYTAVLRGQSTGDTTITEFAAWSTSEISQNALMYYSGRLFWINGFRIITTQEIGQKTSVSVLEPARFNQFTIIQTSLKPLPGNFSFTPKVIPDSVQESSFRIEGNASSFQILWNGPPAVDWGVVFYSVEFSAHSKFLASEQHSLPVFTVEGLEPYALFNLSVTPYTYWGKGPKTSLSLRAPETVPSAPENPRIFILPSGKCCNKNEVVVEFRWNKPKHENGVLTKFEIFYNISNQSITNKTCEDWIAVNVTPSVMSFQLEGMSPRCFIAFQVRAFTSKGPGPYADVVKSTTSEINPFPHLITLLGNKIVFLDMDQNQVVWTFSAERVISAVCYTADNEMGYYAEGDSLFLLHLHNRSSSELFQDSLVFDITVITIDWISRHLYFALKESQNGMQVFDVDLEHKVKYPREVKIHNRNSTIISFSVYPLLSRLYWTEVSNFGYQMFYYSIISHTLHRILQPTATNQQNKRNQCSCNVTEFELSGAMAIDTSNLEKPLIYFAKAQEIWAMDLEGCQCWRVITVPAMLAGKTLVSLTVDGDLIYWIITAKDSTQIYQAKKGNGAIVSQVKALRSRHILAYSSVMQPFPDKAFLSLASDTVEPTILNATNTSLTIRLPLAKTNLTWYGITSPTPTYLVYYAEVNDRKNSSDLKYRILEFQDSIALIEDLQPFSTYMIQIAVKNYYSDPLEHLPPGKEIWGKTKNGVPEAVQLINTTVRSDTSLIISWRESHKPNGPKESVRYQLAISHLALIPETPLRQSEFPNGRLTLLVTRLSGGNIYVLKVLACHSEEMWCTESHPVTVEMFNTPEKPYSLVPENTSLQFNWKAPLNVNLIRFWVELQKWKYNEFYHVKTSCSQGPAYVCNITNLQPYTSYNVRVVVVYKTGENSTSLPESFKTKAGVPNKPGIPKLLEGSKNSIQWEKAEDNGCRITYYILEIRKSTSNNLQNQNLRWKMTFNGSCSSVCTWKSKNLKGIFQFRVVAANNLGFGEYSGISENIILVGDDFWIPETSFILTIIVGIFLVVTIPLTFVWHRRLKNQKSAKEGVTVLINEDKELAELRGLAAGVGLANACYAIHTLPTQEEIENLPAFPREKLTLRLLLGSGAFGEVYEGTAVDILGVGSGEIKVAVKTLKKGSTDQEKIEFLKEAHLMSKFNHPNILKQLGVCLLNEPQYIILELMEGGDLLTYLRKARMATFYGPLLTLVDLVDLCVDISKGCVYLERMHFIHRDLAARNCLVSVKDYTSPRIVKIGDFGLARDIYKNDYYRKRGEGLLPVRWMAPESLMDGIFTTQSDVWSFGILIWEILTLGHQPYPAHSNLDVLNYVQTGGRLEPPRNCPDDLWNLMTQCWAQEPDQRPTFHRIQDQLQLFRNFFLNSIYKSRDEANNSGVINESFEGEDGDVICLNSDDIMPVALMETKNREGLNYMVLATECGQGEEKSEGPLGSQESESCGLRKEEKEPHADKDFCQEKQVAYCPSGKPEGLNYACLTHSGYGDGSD
# Procedure: Adenosine Triphosphate (ATP) is an energy carrier commonly used in various life activities in nature, and is the minimum unit for energy storage and transfer. The CellTiter-Glo™ cell viability assay kit uses luciferase as an assay agent, which requires the involvement of ATP in luminescence. The CellTiter-Glo™ reagent is added into cell culture medium to measure the luminescence value. The luminescence signal is directly proportional to the amount of ATP in the system, and the ATP is positively correlated with the number of viable cells. Therefore, the proliferation of cells can be detected by detecting the ATP content using the CellTiter-Glo kit.
# a) Cells in the logarithmic growth phase were collected and counted using a […]. The cell viability was detected by the trypan blue exclusion method, and the cell viability was kept over 90%.
# b) The cell concentration was adjusted; 90 μL of the cell suspension was added to a 96-well plate.
# a) A 10-fold compound solution was prepared, with the highest concentration being 10 μM (a total of 9 concentrations, 3-fold dilution). 10 μL of compound solution was added to each well of a 96-well plate inoculated with cells, and three duplicate wells were set for each compound concentration.
# a) The CTG reagent was thawed and the cell plate was equilibrated to room temperature for 30 minutes.
# b) An equal volume of CTG solution was added to each well.
# c) The plate was shaken on an orbital shaker for 5 minutes to lyse the cells.
# d) The cell plate was placed at room temperature for 20 minutes to stabilize the luminescence signal.
# e) The luminescence value was read.
# The data were analyzed using GraphPad Prism 5.0 software, fitted with nonlinear S-curve regression to give dose-response curves, and IC50 values were calculated therefrom.
# [2] = Pharmacokinetic test of compounds in mice (plasma, LC/MS/MS); assay type: in vivo, male CD-1 mice; conditions: for AUC(0-t): read-out: Area under the curve AUC0-last
# Procedure: Experimental purpose: male CD-1 mice aged 7-9 weeks were selected as test animals, and the drug concentrations of the compounds in plasma at different time points after single intravenous injection (IV) and intragastric administration (PO) of the compounds were measured by an LC/MS/MS method, so that the pharmacokinetic behavior of the compounds disclosed herein in mice was studied, and the pharmacokinetic characteristic of the compounds was evaluated.
# Drug preparation: the compounds were all prepared into clear solution by taking 5% DMSO+10% solutol+85% water as vehicle, and were used for administration in IV and PO groups. The dose of each compound administered was: IV, 3 mg/kg; PO, 10 mg/kg.
# [3] = tested on: Ba/F3 ETV6-NTRK3 cells; assay: Efficacy test in animals: subcutaneous xenograft, intragastric administration; assay type: in vivo, nude mice
# Procedure: Cells in the logarithmic growth phase were collected and resuspended in serum-free medium to a cell concentration of 2-4×10^7 cells/mL. An equal volume of matrigel was added to the cell suspension to achieve a final cell concentration of 1-2×10^7 cells/mL. 0.2 mL of tumor cell suspension was subcutaneously inoculated at the scapula of each nude mouse with the inoculation amount of 2-4×10^6 cells/mouse to prepare the animal models.
structure (smiles),measurement,setting,value
"O=C1NC2(CC2)COc2ncc(F)cc2C2COCCN2c2ccn3ncc1c3n2 (single isomer, unassigned) [WX001B]",GI50,[1],64.2 nM
same,Apparent clearance Cl,"[2]; IV, 3 mg/kg",7.33 mL/kg/min
same,Vd,"[2]; male, CD-1, mouse, plasma, IV, 3 mg/kg, read-out: Apparent volume of distribution Vd",0.77 L/kg
same,AUC(0-t),"[2]; male, CD-1, mouse, plasma, IV, 3 mg/kg",16.6 µM·h
same,half-life,"[2]; male, CD-1, mouse, plasma, IV, 3 mg/kg, read-out: Half-life T1/2 (converted)",94.8 min
same,AUC(0-t),"[2]; male, CD-1, mouse, plasma, PO, 10 mg/kg",49.1 µM·h
same,bioavailability,"[2]; male, CD-1, mouse, plasma, PO, 10 mg/kg, read-out: Bioavailability F %",89%
same,Cmax,"[2]; male, CD-1, mouse, plasma, PO, 10 mg/kg, read-out: Peak concentration Cmax",12.2 µM
same,Inhibition of growth of subcutaneous xenografts,[3]; 2.5-20 mg/kg,in a dose-dependent manner
same,Relative tumor proliferation rate T/C,"[3]; Day 0, 2.5 mg/kg bid",100.00%
same,Tumor volume,"[3]; Day 0, 2.5 mg/kg bid",303.54 ± 48.83 mm^3
same,Relative tumor proliferation rate T/C,"[3]; Day 0, 5 mg/kg bid",100.00%
same,Tumor volume,"[3]; Day 0, 5 mg/kg bid",303.26 ± 50.47 mm^3
same,Relative tumor proliferation rate T/C,"[3]; Day 0, 10 mg/kg bid",100.00%
same,Tumor volume,"[3]; Day 0, 10 mg/kg bid",303.14 ± 45.09 mm^3
same,Relative tumor proliferation rate T/C,"[3]; Day 0, 20 mg/kg bid",100.00%
same,Tumor volume,"[3]; Day 0, 20 mg/kg bid",303.47 ± 45.79 mm^3
same,Relative tumor proliferation rate T/C,"[3]; Day 3, 2.5 mg/kg bid",42.59%
same,Tumor volume,"[3]; Day 3, 2.5 mg/kg bid",360.24 ± 88.80 mm^3
same,Relative tumor proliferation rate T/C,"[3]; Day 3, 5 mg/kg bid",43.90%
same,Tumor volume,"[3]; Day 3, 5 mg/kg bid",371.36 ± 111.74 mm^3
same,Relative tumor proliferation rate T/C,"[3]; Day 3, 10 mg/kg bid",30.18%
same,Tumor volume,"[3]; Day 3, 10 mg/kg bid",255.24 ± 87.04 mm^3
same,Relative tumor proliferation rate T/C,"[3]; Day 3, 20 mg/kg bid",31.16%
same,Tumor volume,"[3]; Day 3, 20 mg/kg bid",263.60 ± 85.49 mm^3
same,Relative tumor proliferation rate T/C,"[3]; Day 5, 2.5 mg/kg bid",29.79%
same,Tumor volume,"[3]; Day 5, 2.5 mg/kg bid",376.59 ± 84.87 mm^3
same,Relative tumor proliferation rate T/C,"[3]; Day 5, 5 mg/kg bid",22.33%
same,Tumor volume,"[3]; Day 5, 5 mg/kg bid",282.31 ± 46.30 mm^3
same,Relative tumor proliferation rate T/C,"[3]; Day 5, 10 mg/kg bid",19.15%
same,Tumor volume,"[3]; Day 5, 10 mg/kg bid",242.09 ± 78.53 mm^3
same,Relative tumor proliferation rate T/C,"[3]; Day 5, 20 mg/kg bid",22.72%
same,Tumor volume,"[3]; Day 5, 20 mg/kg bid",287.22 ± 96.26 mm^3
same,Relative tumor proliferation rate T/C,"[3]; Day 7, 2.5 mg/kg bid",18.12%
same,Tumor volume,"[3]; Day 7, 2.5 mg/kg bid",388.09 ± 100.42 mm^3
same,Relative tumor proliferation rate T/C,"[3]; Day 7, 5 mg/kg bid",16.77%
same,Tumor volume,"[3]; Day 7, 5 mg/kg bid",353.35 ± 109.82 mm^3
same,Relative tumor proliferation rate T/C,"[3]; Day 7, 10 mg/kg bid",12.50%
same,Tumor volume,"[3]; Day 7, 10 mg/kg bid",263.53 ± 134.53 mm^3
same,Relative tumor proliferation rate T/C,"[3]; Day 7, 20 mg/kg bid",9.56%
same,Tumor volume,"[3]; Day 7, 20 mg/kg bid",201.43 ± 135.76 mm^3
same,Relative tumor proliferation rate T/C,"[3]; Day 9, 2.5 mg/kg bid",18.22%
same,Tumor volume,"[3]; Day 9, 2.5 mg/kg bid",499.09 ± 161.54 mm^3
same,Relative tumor proliferation rate T/C,"[3]; Day 9, 5 mg/kg bid",16.04%
same,Tumor volume,"[3]; Day 9, 5 mg/kg bid",439.46 ± 222.47 mm^3
same,Relative tumor proliferation rate T/C,"[3]; Day 9, 10 mg/kg bid",7.73%
same,Tumor volume,"[3]; Day 9, 10 mg/kg bid",211.85 ± 87.87 mm^3
